Laboratory results reported in patent US20260217660A1, “INHIBITORS OF ACTIVIN RECEPTOR TYPE I (ACVRI) AND ACTIVIN RECEPTOR LIKE TYPE I (ACVRLI), AND METHODS USING SAME” (Baylor College of Medicine, priority 2023, published 2026).
Where a chain is given by its changes, count along the chain named.

What was measured:
ACVR1 = target: T1, ACVR1 (Homo sapiens, UniProt Q04771); assay: ThermoFisher (Lantha) kinase assay, inhibition of ACVR1; assay type: biochemical; settings: ThermoFisher Assay, in vitro
T1 construct: purchased ThermoFisher
T1 sequence (Q04771 21-509): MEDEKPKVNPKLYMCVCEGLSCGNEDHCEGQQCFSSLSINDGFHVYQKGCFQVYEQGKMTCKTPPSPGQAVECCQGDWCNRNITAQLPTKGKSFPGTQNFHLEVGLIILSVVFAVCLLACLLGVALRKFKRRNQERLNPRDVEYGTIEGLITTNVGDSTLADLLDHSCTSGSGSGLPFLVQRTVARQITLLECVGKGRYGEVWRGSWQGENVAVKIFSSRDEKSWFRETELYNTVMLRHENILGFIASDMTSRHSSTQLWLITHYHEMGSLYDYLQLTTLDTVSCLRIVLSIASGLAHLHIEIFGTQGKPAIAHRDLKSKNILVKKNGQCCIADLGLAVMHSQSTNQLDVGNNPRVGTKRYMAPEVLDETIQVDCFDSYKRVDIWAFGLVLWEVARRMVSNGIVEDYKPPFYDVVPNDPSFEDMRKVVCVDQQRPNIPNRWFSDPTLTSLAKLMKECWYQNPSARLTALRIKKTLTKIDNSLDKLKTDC

ACVRL1 = target: T2, ACVRL1 (Homo sapiens, UniProt P37023); assay: ThermoFisher (Lantha) kinase assay, inhibition of ACVRL1; assay type: biochemical; settings: in vitro, NA = not active at 1 μM
T2 construct: purchased ThermoFisher
T2 sequence (P37023 22-503): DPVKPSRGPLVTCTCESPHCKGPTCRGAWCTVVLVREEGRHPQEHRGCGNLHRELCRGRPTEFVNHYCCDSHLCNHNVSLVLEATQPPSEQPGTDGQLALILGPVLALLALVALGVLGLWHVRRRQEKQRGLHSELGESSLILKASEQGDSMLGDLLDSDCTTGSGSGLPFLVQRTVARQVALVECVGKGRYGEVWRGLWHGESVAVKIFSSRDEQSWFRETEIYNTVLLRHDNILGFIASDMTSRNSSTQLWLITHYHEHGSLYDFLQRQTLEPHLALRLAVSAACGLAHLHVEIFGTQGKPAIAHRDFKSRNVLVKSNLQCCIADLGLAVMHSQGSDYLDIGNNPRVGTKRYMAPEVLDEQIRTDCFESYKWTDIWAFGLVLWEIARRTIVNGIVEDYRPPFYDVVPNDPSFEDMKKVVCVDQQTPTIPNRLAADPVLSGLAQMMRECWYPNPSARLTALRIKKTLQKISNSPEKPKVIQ

[1] = Metabolic stability in human liver microsomes; assay type: in vitro ADME; settings: some cells add hours in brackets
Description: (§1) Exemplary compounds of the present disclosure have been evaluated for metabolic stability in mouse and human liver microsomes.

[2] = Metabolic stability in mouse liver microsomes; assay type: in vitro ADME; settings: some cells add hours in brackets
Description: as §1

ACVR1^WT = target: T3, ACVR1^WT (Homo sapiens, UniProt Q04771); assay: Promega NanoBRET live-cell target engagement, ACVR1; assay type: cell-based; settings: in cellulo; NI = No inhibition at 40 μM
T3 sequence (Q04771 21-509): T1 sequence (Q04771 21-509)
Description: (§2) The Promega NanoBRET target engagement system involves cell-based competitive displacement of a fluorescent NanoBRET tracer bound reversibly to a NanoLuc fusion protein. Test compounds displace the tracer dependent on their affinity for the target and reduce […] the NanoBRET signal. […]

ACVR1^R206H = target: T4, ACVR1^R206H (Homo sapiens, UniProt Q04771, R206H); assay: Promega NanoBRET live-cell target engagement, ACVR1 (R206H); assay type: cell-based; settings: in cellulo; NI = No inhibition at 40 μM
T4 sequence (Q04771 21-509 R206H): T1 sequence (Q04771 21-509) with R186H
Description: as §2

Row | Compound | IC50 (ACVR1) [nM] | IC50 (ACVRL1) [nM] | further results
1 | 1-cyclopropyl-N-(3-(4-(2,3-dimethylphenyl)piperazin-1-yl)propyl)-2-(3,4,5-trimethoxyphenyl)-1H-benzo[d]imidazole-6-carboxamide [CDD-2468] | 135 | 4050 | 
2 | CNC(=O)[C@H]1CC[C@H](n2c(-c3cc(I)c(OC)c(OC)c3)nc3ccc(C(=O)NCCCN4CCN(c5ccccc5)CC4)cc32)C1 [CDD-2205, 2-(3-iodo-4,5-dimethoxyphenyl)-1-((1S,3S)-3-(methylcarbamoyl)cyclopentyl)-N-(3-(4-phenylpiperazin-1-yl)propyl)-1H-benzo[d]imidazole-6-carboxamide] | 3.7 | 14.8 | 
3 | CNC(=O)[C@H]1CC[C@H](n2c(-c3cc(OC)c(OC)c(OC)c3)nc3ccc(C(=O)NCCCN4CCN(c5ccccc5)CC4)cc32)C1 [CDD-2206, 1-((1S,3S)-3-(methylcarbamoyl)cyclopentyl)-N-(3-(4-phenylpiperazin-1-yl)propyl)-2-(3,4,5-trimethoxyphenyl)-1H-benzo[d]imidazole-6-carboxamide] | 5.3 | 26.9 | 
4 | CNC(=O)[C@H]1CC[C@H](n2c(-c3cc(OC)c(OC)c(OC)c3)nc3ccc(C(=O)NC4COc5ccc(Cl)cc54)cc32)C1 (stereo partly drawn) [CDD-2233, N-(5-chloro-2,3-dihydrobenzofuran-3-yl)-1-((1S,3S)-3-(methylcarbamoyl)cyclopentyl)-2-(3,4,5-trimethoxyphenyl)-1H-benzo[d]imidazole-6-carboxamide] | 19.9 | 20.1 | 
5 | CNC(=O)[C@H]1C[C@H](n2c(-c3cc(OC)c(OC)c(OC)c3)nc3ccc(C(=O)NCCCN4CCN(c5ccccc5)CC4)cc32)C1 [CDD-2235, 1-((1r,3r)-3-(methylcarbamoyl)cyclobutyl)-N-(3-(4-phenylpiperazin-1-yl)propyl)-2-(3,4,5-trimethoxyphenyl)-1H-benzo[d]imidazole-6-carboxamide] |  |  | Metabolism HLM [1]: 9.7 min; Metabolism MLM [2]: 5.7 min
6 | COc1cc(-c2nc3ccc(C(=O)NCCCN4CCN(c5ccccc5)CC4)cc3[nH]2)cc(OC)c1OC [CDD-2236, N-(3-(4-phenylpiperazin-1-yl)propyl)-2-(3,4,5-trimethoxyphenyl)-1H-benzo[d]imidazole-6-carboxamide] | 65.6 | 534 | 
7 | CNC(=O)[C@H]1C[C@H](n2c(-c3cc(OC)c(OC)c(OC)c3)nc3ccc(C(=O)NCCCN4CCN(C)CC4)cc32)C1 [CDD-2280, 1-((1r,3r)-3-(methylcarbamoyl)cyclobutyl)-N-(3-(4-methylpiperazin-1-yl)propyl)-2-(3,4,5-trimethoxyphenyl)-1H-benzo[d]imidazole-6-carboxamide] |  |  | IC50 (ACVR1^WT): > 40000 nM; Metabolism HLM [1]: 70.7 min; Metabolism MLM [2]: 48 min; IC50 (ACVR1^R206H): > 40000 nM
8 | CNC(=O)[C@H]1C[C@H](n2c(-c3cc(OC)c(OC)c(OC)c3)nc3ccc(C(=O)NCCCN4CCN(c5cccc(C)c5C)CC4)cc32)C1 [CDD-2341, N-(3-(4-(2,3-dimethylphenyl)piperazin-1-yl)propyl)-1-((1r,3r)-3-(methylcarbamoyl)cyclobutyl)-2-(3,4,5-trimethoxyphenyl)-1H-benzo[d]imidazole-6-carboxamide] | 3.6 | 12.3 | 
9 | COc1cc(-c2nc3ccc(C(=O)NCCC(=O)N4CCN(c5cccc(C)c5C)CC4)cc3n2C2CCC2)cc(OC)c1OC [CDD-2467, 1-cyclobutyl-N-(3-(4-(2,3-dimethylphenyl)piperazin-1-yl)-3-oxopropyl)-2-(3,4,5-trimethoxyphenyl)-1H-benzo[d]imidazole-6-carboxamide] |  |  | Metabolism HLM [1]: 13.6 min; Metabolism MLM [2]: 9.3 min
10 | COc1cc(OC)cc(-c2nc3ccc(C(=O)NCCCN4CCN(c5cccc(C)c5C)CC4)cc3n2C2CCC2)c1 [CDD-2469, 1-cyclobutyl-2-(3,5-dimethoxyphenyl)-N-(3-(4-(2,3-dimethylphenyl)piperazin-1-yl)propyl)-1H-benzo[d]imidazole-6-carboxamide] |  |  | IC50 (ACVR1^WT): 4720 nM; IC50 (ACVR1^R206H): 4450 nM
11 | COc1ccc(-c2cccc(-c3nc4ccc(C(=O)NCCCN(C)C)cc4n3C3CCC3)n2)cc1 [CDD-2620, 1-cyclobutyl-N-(3-(dimethylamino)propyl)-2-(6-(4-methoxyphenyl)pyridin-2-yl)-1H-benzo[d]imidazole-6-carboxamide] |  | > 1000 | 
12 | CN(C)CCCNC(=O)c1ccc2nc(-c3cccc(-c4ccccc4)c3)n(C3CCC3)c2c1 [CDD-2621, 2-([1,1′-biphenyl]-3-yl)-1-cyclobutyl-N-(3-(dimethylamino)propyl)-1H-benzo[d]imidazole-6-carboxamide] |  | > 1000 | 
13 | CNC(=O)[C@@H]1CC[C@@H](n2c(-c3cc(OC)c(OC)c(OC)c3)nc3ccc(C(=O)NCCCN4CCN(c5ccccc5)CC4)cc32)C1 [CDD-2622, 1-((1R,3R)-3-(methylcarbamoyl)cyclopentyl)-N-(3-(4-phenylpiperazin-1-yl)propyl)-2-(3,4,5-trimethoxyphenyl)-1H-benzo[d]imidazole-6-carboxamide] | 5.7 | 11.5 | 
14 | CN(C)CCCNC(=O)c1ccc2nc(-c3cncc4ccccc34)n(C3CCC3)c2c1 [CDD-2623, 1-cyclobutyl-N-(3-(dimethylamino)propyl)-2-(isoquinolin-4-yl)-1H-benzo[d]imidazole-6-carboxamide] |  | > 1000 | 
15 | CNC(=O)[C@H]1C[C@H](n2c(-c3cc(F)cc(OC)c3)nc3ccc(C(=O)NCCCN(C)C)cc32)C1 [CDD-2682, N-(3-(dimethylamino)propyl)-2-(3-fluoro-5-methoxyphenyl)-1-((1r,3r)-3-(methylcarbamoyl)cyclobutyl)-1H-benzo[d]imidazole-6-carboxamide] | 87.1 | 407 | 
16 | CNC(=O)[C@H]1C[C@H](n2c(-c3ccc(F)c(OC)c3)nc3ccc(C(=O)NCCCN(C)C)cc32)C1 [CDD-2683, N-(3-(dimethylamino)propyl)-2-(4-fluoro-3-methoxyphenyl)-1-((1r,3r)-3-(methylcarbamoyl)cyclobutyl)-1H-benzo[d]imidazole-6-carboxamide] | 77.4 | 190 | 
17 | CNC(=O)[C@H]1C[C@H](n2c(-c3cccc(OC)c3)nc3ccc(C(=O)NCCCN(C)C)cc32)C1 [CDD-2684, N-(3-(dimethylamino)propyl)-2-(3-methoxyphenyl)-1-((1r,3r)-3-(methylcarbamoyl)cyclobutyl)-1H-benzo[d]imidazole-6-carboxamide] | 84 | 197 | 
18 | CNC(=O)[C@H]1C[C@H](n2c(-c3ccc(OC)c(OC)c3)nc3ccc(C(=O)NCCCN(C)C)cc32)C1 [CDD-2685, 2-(3,4-dimethoxyphenyl)-N-(3-(dimethylamino)propyl)-1-((1r,3r)-3-(methylcarbamoyl)cyclobutyl)-1H-benzo[d]imidazole-6-carboxamide] | 121 | 390 | 
19 | COc1cc(-c2nc3ccc(C(=O)NCCCN4CCN(C)C(c5ccccc5)C4)cc3n2C2CCC2)cc(OC)c1OC (centres unmarked) [CDD-2793, 1-cyclobutyl-N-(3-(4-methyl-3-phenylpiperazin-1-yl)propyl)-2-(3,4,5-trimethoxyphenyl)-1H-benzo[d]imidazole-6-carboxamide] |  |  | IC50 (ACVR1^WT): 2720 nM; IC50 (ACVR1^R206H): 4280 nM
20 | COc1cc(-c2nc3ccc(C(=O)NCCN4CCN(C5CCCCC5)CC4)cc3n2C2CCC2)cc(OC)c1OC [CDD-2794, 1-cyclobutyl-N-(2-(4-cyclohexylpiperazin-1-yl)ethyl)-2-(3,4,5-trimethoxyphenyl)-1H-benzo[d]imidazole-6-carboxamide] |  |  | IC50 (ACVR1^WT): 2090 nM; IC50 (ACVR1^R206H): 3160 nM
21 | COc1cc(-c2nc3ccc(C(=O)NCC4(O)CCN(Cc5ccccc5)CC4)cc3n2C2CCC2)cc(OC)c1OC [CDD-2795, N-((1-benzyl-4-hydroxypiperidin-4-yl)methyl)-1-cyclobutyl-2-(3,4,5-trimethoxyphenyl)-1H-benzo[d]imidazole-6-carboxamide] |  |  | IC50 (ACVR1^WT): 387 nM; IC50 (ACVR1^R206H): 459 nM
